In patent US12447161B2, “Topical pharmaceutical formulation” (RaDes GmbH, priority 2021, dated 2025):
“Also recorded” adds a separate entry of the source.

What was measured:
[1] = Solubility of mometasone furoate in solvents of prior art formulations; assay type: physicochemical
Experimental: Dissolution studies were performed with mometasone furoate in both the oil phase and the aqueous phase of the DIPA-containing lotion formulations of Examples 3 and 9 of DE102006034883 to determine the solubility of mometasone furoate in mg/ml in said formulations. For this purpose, first, the liquid excipients of the oil phase and the aqueous phase were mixed in the correct relative amounts to form the respective solvent systems; the low amounts of solid excipients contained in the formulations were not considered. Based on the weight ratio between oil and water phase, the theoretical solubility of mometasone furoate in the complete formulation can then be estimated using the formula: [proportion of oil phase·solubility in oil phase]+[proportion of aqueous phase·solubility in aqueous phase] For instance, for Ex. 3 of DE102006034883, the oil phase (paraffinum liquidum) makes up about 20 wt. %, the remainder is the aqueous phase. […] For instance, for Ex. 9 of DE102006034883, the oil phase makes up 27.88 wt. %, the remainder is the aqueous phase.

[2] = Re-precipitation of mometasone furoate in solvent systems of Ex. 10 and 11 of DE102006034883; assay type: physicochemical; settings: then 40.56 parts of water
Experimental: Similar to Example 7 above, dissolution behaviour of mometasone furoate was also tested for the DIPA-containing prior art cream formulations described in examples 10 and 11 of DE102006034883. For this purpose, mometasone furoate was dissolved in solvent systems based on Ex. 10 and 11 as follows:
Ex. 10: 0.1 parts mometasone furoate were dissolved in 1 part phenoxy ethanol and 10 parts hexylene glycol, resulting in a clear solution.
Ex. 11: 0.1 parts mometasone furoate were dissolved in 1 part phenoxy ethanol and 10 parts diethylene glycol monoethyl ether (Transcutol®), resulting in a clear solution.

[3] = cited from earlier work

C[C@@H]1C[C@H]2[C@@H]3CCC4=CC(=O)C=C[C@]4(C)[C@@]3(Cl)[C@@H](O)C[C@]2(C)[C@@]1(OC(=O)c1ccco1)C(=O)CCl [mometasone furoate, 9α,21-dichloro-11β,17α-dihydroxy-16α-methylpregna-1,4-diene-3,20-dione 17-(2-furoate)]
solubility in liquid paraffin [1]: about 0.05 mg/mL | Solubility of mometasone furoate ([1]; Aqueous phase Ex. 3 of DE102006034883 (phenoxy ethanol, polysorbate 40, Transcutol, water)): 150 µg/mL | Solubility of mometasone furoate ([1]; Aqueous phase Ex. 9 of DE102006034883 (phenoxy ethanol, Steareth 21, hexylene glycol, water)): 90 µg/mL | Solubility of mometasone furoate ([1]; Oil phase Ex. 3 of DE102006034883 (liquid paraffin)): 50 µg/mL | Solubility of mometasone furoate ([1]; Oil phase Ex. 9 of DE102006034883 (MCT, DIPA, liquid paraffin, Capryol 90)): 830 µg/mL | overall theoretical solubility ([1]; complete formulation Ex. 3 of DE102006034883): about 0.13 mg/ml | overall theoretical solubility ([1]; complete formulation Ex. 9 of DE102006034883): about 0.293 mg/ml | behaviour on addition of aqueous phase ([2]; Ex. 10 solvent system: phenoxy ethanol, hexylene glycol): precipitation of mometasone furoate; also recorded: precipitated | behaviour on addition of aqueous phase ([2]; Ex. 11 solvent system: phenoxy ethanol, Transcutol®): precipitation of mometasone furoate; also recorded: precipitated | log P [3]: about 4 | water solubility [3]: about 0.95 μg/mL
